From ChEMBL document CHEMBL1201862, “PubChem BioAssay data set” (2004)
Active and inactive are the calls of the source.

Experiments:
HEK293 [1] = experiment: cells; assay type: functional, cell-based; conditions: Homo sapiens
[2] = target: Nucleotide-binding oligomerization domain-containing protein 2 (Homo sapiens, UniProt Q9HC29); experiment: NOD2 signaling inhibitors, cell-based, luminescence, uHTS, HEK293 (AID 1566); assay type: functional
HEK293 [3] = experiment: cells; assay type: functional, cell-based; conditions: Homo sapiens; remark: listed apart in the source
[4] = target: Photoreceptor-specific nuclear receptor (Homo sapiens, UniProt Q9Y5X4); assay type: functional, cell-based;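 also: CHO-S cells with Gal4-NCOR and VP16-NR2E3 two-hybrid luciferase reporter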
HEK293 [5] = experiment: cells; assay type: functional, cell-based; conditions: Homo sapiens; remark: listed apart in the source
HEK293 [6] = experiment: NOD2 signaling inhibitors in MDP-stimulated cells, cell-based, uHTS, luminescence (AID 2001); assay type: functional; conditions: Homo sapiens
HEK293 [7] = experiment: NOD1 signaling inhibitors, primary screen, cell-based, luminescence, uHTS (AID 1578); assay type: functional; conditions: Homo sapiens
[8] = target: T1, Sentrin-specific protease 1 (Homo sapiens, UniProt Q9P0U3); experiment: Dose response confirmation of small molecule inhibitors of the catalytic domain of the SUMO protease, SENP1 in a FRET assay.; assay type: functional; conditions: read-out: IC50_Mean
T1 sequence (Q9P0U3 whole entry): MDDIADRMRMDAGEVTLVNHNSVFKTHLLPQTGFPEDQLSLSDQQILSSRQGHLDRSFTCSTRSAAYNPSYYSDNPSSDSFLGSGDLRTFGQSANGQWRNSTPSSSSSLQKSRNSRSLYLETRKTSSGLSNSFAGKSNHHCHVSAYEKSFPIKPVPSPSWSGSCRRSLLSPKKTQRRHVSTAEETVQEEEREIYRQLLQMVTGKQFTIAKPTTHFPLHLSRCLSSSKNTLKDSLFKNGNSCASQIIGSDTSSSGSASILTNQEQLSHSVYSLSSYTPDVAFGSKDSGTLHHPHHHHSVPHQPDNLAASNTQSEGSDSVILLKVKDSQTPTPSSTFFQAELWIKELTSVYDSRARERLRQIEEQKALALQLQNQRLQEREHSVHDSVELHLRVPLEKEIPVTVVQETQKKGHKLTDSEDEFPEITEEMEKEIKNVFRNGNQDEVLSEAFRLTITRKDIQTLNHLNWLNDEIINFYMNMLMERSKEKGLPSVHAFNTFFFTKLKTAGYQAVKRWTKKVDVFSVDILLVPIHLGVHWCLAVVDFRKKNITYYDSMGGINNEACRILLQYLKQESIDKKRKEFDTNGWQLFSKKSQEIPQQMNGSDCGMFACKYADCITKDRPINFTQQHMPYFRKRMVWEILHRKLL

[9] = target: T1, Sentrin-specific protease 1; experiment: potency of human SENP1 inhibitors, dose response, biochemical, kinetic FRET (AID 651697); assay type: functional; conditions: read-out: IC50_Mean
[10] = NIH-3T3 fibroblast cytotoxicity, dose response, cytotoxicity control, cell-based, fluorescence, Alamar Blue, secondary assay (AID 2327); assay type: functional;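 also: NIH-3T3 mouse fibroblasts cultured with fluconazole at 8 µg/mL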
[11] = cytotoxicity toward NIH3T3 fibroblasts, dose response, counter-screen, cell-based, ATP luminescence, mouse fibroblasts (AID 2010); assay type: functional;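 also: cells exposed to compound for about 90 hours before reading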
Estrogen receptor = target: T2, Estrogen receptor (Homo sapiens, UniProt P03372);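 also: potency for inhibiting coactivator peptide recruitment to the receptor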
T2 sequence (P03372 whole entry): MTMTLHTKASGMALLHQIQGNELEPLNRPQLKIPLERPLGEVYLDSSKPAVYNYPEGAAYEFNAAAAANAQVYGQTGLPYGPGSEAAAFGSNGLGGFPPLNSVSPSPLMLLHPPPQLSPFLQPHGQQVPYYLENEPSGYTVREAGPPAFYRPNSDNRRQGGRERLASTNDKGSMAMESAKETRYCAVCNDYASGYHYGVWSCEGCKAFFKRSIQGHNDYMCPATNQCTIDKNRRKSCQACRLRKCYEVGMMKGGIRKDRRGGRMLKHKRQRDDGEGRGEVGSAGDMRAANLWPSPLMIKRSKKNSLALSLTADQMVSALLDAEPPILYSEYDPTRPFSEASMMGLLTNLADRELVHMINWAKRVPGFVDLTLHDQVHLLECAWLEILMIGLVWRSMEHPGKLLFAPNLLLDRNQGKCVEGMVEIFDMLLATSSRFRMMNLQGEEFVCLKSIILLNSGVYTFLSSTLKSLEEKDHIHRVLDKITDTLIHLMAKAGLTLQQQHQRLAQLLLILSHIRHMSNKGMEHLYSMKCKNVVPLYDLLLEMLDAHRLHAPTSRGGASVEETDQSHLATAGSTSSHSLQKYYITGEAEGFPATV

[12] = C. albicans growth with fluconazole, confirmation, fluorescence, retest (AID 2467); assay type: functional, cell-based
[13] = inhibitors of intracellular T. cruzi replication, confirmation, NIH3T3 host cells, beta-gal luminescence (AID 2044); assay type: functional, cell-based;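 also: intracellular parasites grown in NIH/3T3 mouse fibroblasts as host cells; luminescent beta-galactosidase reporter signal from transgenic T. cruzi replicating inside host cells; inhibitors lower the luminescence signal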
[14] = target: T3, Rac GTPase-activating protein 1 (Homo sapiens, UniProt Q9H0H5); experiment: MgcRacGAP GTPase-activating activity inhibitors, confirmation, biochemical, ADP Hunter fluorescence, primary and confirmatory (AID 624330); assay type: functional
T3 sequence (Q9H0H5 whole entry): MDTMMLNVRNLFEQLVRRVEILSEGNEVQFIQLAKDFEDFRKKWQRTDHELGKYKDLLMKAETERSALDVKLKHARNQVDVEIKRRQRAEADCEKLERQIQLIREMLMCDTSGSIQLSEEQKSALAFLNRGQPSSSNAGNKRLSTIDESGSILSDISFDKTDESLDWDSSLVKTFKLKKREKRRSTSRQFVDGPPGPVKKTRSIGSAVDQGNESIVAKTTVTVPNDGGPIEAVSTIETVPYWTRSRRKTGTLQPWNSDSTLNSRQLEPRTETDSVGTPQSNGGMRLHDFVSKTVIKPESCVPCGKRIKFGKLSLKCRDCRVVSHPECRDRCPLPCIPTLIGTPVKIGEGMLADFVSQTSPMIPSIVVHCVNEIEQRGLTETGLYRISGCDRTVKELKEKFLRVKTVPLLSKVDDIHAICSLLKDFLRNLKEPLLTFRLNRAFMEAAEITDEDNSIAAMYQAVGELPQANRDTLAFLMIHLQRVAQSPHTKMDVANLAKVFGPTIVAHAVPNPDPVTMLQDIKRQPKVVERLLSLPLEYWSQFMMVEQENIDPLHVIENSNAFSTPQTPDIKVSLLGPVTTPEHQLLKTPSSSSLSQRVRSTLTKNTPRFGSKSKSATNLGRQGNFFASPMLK

Protein Wnt-3a = Protein Wnt-3a (Mus musculus, UniProt P27467); experiment: Wnt3a-driven reporter signaling inhibition, dose response, selectivity assay for Gli-SUFU antagonist project, Wnt-LIGHT cells, luminescence (AID 651570); assay type: functional; conditions: read-out: IC50_Mean;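 also: Wnt-LIGHT reporter cells stimulated with conditioned medium from Wnt3a-producing cells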
Large T antigen = Large T antigen (Simian virus 40, UniProt P03070); assay type: functional, Betapolyomavirus macacae;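 also: Confirmatory-stage PubChem screen for compounds that inhibit SV40 T antigen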
[15] = target: T4, Heat shock factor protein 1 (Mus musculus, UniProt P38532); experiment: HSF1 potentiators in luciferase reporter cells, confirmation, cell-based, NIH3T3, luminescence, dose retest (AID 435004); assay type: functional;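 also: stress induced by proteasome inhibitor MG132 added 30 min after compound; luciferase reporter driven by HSF1 response element in NIH3T3 cells; actives raise luminescence as potentiators of the MG132 stress response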
T4 sequence (P38532 whole entry): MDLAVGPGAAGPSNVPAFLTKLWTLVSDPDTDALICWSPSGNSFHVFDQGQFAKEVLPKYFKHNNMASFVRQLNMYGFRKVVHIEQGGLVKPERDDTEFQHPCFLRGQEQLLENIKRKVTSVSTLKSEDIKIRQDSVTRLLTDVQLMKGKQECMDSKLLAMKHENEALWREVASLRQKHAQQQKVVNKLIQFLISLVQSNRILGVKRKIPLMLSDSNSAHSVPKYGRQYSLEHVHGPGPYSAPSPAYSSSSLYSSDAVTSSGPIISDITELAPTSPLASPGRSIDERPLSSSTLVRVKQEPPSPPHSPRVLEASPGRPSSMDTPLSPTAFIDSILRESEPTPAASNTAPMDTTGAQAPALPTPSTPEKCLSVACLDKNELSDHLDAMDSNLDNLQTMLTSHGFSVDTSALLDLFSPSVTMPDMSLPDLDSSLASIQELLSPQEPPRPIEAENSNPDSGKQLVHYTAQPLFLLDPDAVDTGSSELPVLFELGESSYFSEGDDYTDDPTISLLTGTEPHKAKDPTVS

[16] = miR-122 activators in hepatoma reporter cells, dose response, cell-based, Huh7 psiCHECK-miR122, Renilla luciferase, cherry-picked (AID 651956); assay type: functional;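 also: huh7 hepatoma cells stably carrying a psiCHECK-2 miR-122 sensor plasmid; renilla luciferase signal reporting endogenous miR-122 activity after 48 h compound exposure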

Chain of Photoreceptor-specific nuclear receptor (Q9Y5X4 whole entry, the tested form may be a part): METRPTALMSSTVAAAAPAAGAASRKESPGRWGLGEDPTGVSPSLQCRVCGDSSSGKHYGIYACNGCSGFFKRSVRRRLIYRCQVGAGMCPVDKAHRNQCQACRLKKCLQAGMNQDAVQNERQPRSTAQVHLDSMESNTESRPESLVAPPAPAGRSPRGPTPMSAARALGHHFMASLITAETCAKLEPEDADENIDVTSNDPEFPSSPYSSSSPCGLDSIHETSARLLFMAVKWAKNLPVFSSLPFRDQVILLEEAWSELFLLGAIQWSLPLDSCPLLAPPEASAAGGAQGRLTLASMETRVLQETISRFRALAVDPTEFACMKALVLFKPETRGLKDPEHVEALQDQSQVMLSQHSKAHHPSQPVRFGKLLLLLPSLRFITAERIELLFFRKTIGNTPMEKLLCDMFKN
Chain of Nucleotide-binding oligomerization domain-containing protein 2 (Q9HC29 whole entry, the tested form may be a part): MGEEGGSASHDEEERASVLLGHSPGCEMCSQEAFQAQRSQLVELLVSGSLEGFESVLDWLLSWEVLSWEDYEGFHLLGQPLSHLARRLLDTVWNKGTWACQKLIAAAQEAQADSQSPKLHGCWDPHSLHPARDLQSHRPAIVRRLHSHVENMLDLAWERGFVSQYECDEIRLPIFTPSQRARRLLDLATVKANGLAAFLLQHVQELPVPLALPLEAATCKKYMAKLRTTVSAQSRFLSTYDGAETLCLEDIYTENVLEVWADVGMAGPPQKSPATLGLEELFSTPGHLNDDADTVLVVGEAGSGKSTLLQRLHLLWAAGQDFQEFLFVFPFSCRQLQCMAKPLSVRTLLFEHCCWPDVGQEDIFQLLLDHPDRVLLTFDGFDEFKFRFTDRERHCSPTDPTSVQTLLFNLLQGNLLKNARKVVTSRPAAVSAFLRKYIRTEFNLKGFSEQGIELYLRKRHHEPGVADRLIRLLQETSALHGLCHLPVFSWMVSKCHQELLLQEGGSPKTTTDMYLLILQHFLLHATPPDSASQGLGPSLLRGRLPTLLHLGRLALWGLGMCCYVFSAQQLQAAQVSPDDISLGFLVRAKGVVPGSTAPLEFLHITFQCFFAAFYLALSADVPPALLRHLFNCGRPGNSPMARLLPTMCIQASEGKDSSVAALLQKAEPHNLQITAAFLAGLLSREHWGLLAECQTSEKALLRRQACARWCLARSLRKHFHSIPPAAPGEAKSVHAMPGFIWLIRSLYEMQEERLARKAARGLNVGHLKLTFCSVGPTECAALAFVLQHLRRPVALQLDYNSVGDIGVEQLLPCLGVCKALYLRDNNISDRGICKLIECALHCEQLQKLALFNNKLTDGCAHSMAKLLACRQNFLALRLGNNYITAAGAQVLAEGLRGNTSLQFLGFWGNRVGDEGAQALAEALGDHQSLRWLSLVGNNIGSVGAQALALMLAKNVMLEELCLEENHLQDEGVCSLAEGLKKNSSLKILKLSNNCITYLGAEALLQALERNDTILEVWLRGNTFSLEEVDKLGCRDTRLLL
Chain of Large T antigen (P03070 whole entry): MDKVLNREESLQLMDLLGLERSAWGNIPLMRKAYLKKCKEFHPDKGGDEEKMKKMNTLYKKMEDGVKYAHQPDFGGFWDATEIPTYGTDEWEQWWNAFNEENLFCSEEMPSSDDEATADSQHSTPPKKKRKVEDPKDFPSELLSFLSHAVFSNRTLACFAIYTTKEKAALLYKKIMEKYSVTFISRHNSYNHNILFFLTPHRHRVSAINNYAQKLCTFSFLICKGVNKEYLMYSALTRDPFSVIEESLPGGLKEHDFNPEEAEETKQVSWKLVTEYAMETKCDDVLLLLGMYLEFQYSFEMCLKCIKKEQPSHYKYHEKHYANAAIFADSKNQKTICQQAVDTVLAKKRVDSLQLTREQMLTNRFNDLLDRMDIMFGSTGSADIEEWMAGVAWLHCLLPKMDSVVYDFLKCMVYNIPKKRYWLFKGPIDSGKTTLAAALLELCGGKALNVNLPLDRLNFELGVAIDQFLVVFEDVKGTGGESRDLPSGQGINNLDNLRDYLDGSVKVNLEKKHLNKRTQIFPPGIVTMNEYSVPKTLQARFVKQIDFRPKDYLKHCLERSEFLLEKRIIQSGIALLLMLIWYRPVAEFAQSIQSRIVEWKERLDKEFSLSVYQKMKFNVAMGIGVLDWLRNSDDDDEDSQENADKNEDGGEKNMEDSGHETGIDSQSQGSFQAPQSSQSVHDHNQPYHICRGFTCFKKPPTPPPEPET
Chain of Protein Wnt-3a (P27467 whole entry): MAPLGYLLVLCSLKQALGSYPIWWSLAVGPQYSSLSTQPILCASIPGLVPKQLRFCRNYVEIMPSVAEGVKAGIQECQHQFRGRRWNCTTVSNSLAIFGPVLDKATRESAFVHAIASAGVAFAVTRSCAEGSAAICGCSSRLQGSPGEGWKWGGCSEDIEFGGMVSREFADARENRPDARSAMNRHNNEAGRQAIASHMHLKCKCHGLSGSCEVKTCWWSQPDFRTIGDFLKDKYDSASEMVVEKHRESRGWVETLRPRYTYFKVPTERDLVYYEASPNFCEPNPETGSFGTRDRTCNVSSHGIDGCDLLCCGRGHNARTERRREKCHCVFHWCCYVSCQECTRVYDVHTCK

SMILES: C=CCn1c(C)cc(C(=O)COc2ccc(C)nc2[N+](=O)[O-])c1C
- IC50 (HEK293 [1]): 5.78 µM (active)
- EC50 [2]: 6.96 µM (active)
- IC50 (HEK293 [3]): > 20 µM (inactive)
- IC50 [4]: 4.69 µM (active)
- IC50 (HEK293 [5]): > 20 µM (inactive)
- IC50 (HEK293 [6]): > 20 µM (inactive)
- EC50 (HEK293 [7]): > 20 µM (inactive)

SMILES: c1ccc(NC2=Nc3cccc4cccc2c34)cc1
- IC50 [8]: 17.2 µM (active)
- IC50 [9]: 53.8 µM (inactive)

SMILES: c1ccc(CN2CCN(C3=Nc4cccc5cccc3c45)CC2)cc1
- IC50 [8]: 7.24 µM (active)
- IC50 [9]: 7.01 µM (active)

SMILES: COc1ccc(NC2=Nc3cccc4cccc2c34)cc1
- IC50 [8]: 10 µM (active)
- IC50 [9]: 45.8 µM (inactive)

SMILES: Cc1cccc(-n2c(SCc3cc(=O)n4ccsc4n3)nc3ccccc32)c1
- IC50 [8]: 9.71 µM (active)
- EC50 [10]: 19.9 µM (active)
- EC50 [11]: > 60 µM (not active)
- IC50 (Estrogen receptor): > 50 µM (not active)
- EC50 (cells): 0.209 µM (active)
- IC50 [9]: 22.3 µM (inactive)
- EC50 [12]: 2.05 µM (active)
- EC50 [13]: < 0.1 µM (active)

SMILES: COc1cc(S(=O)(=O)Nc2ccc3c(c2)C(=O)N(C)C3=O)ccc1NC(C)=O
- IC50 [8]: 9.39 µM (active)
- IC50 [9]: 9.06 µM (active)

SMILES: O=C1N/C(=C\c2ccc(O)cc2)C(O)=C1/C=N/Cc1ccccc1
- IC50 [14]: 13 µM (active)
- IC50 (Protein Wnt-3a): 7.28 µM (active)
- IC50 (Large T antigen): 12.1 µM (active)
- IC50 [4]: 3.35 µM (active)
- EC50 [15]: 5.35 µM (active)

SMILES: CCCC#Cc1ccc2c(c1)O[C@H](CN(C)C(=O)c1ccncc1)[C@H](C)CN([C@@H](C)CO)S2(=O)=O
- AC50 [16]: 1.06 µM (active)

SMILES: CCC(=O)N1C[C@H]2[C@@H](c3ccccc31)[C@H](CO)N2C(=O)Nc1ccccc1F
- AC50 [16]: 4.38 µM (active)

SMILES: Cc1ccccc1-c1ccc2c(c1)O[C@@H](CN(C)C(=O)Nc1ccc(F)cc1)[C@@H](C)CN([C@@H](C)CO)S2(=O)=O
- AC50 [16]: 18.5 µM (active)
